Experimental data from paper PMC11173485, “Connecting GSK-3β Inhibitory Activity with IKK-β or ROCK-1 Inhibition to Target Tau Aggregation and Neuroinflammation in Alzheimer’s Disease—Discovery, In Vitro and In Cellulo Activity of Thiazole-Based Inhibitors” (Molecules, 2024).
Read-outs that look alike come from different tables or passages of the source.

Experiments:
[1] = target: T1, ROCK-1 (Homo sapiens, UniProt Q13464); assay: ADP-Glo kinase assay, ROCK-1 inhibition; assay type: biochemical; settings: for inhibition at 10 µM: read-out: % inh. at 10 µM ROCK-1
T1 construct: purchased Promega
Description: (§1) We evaluated the inhibitory activity of the final compounds against GSK-3β, IKK-β, and ROCK-1 kinases using the commercially available ADP-Glo™ kinase assay. The method was based on the measurement of luminescence that correlates with kinase activity. […] The latter are inhibitors of the kinases of interest and were integral to the design of our studies.
Promega’s Kinase Enzyme Systems (Promega; Madison, WI, USA) were used to determine the activities of the tested compounds against the human recombinant kinases GSK-3β, IKK- β, and ROCK-1. The assays were performed according to the provided manufacturer’s instruction, based on the optimized conditions of the enzymatic reactions, using the low-volume, white polystyrene, 384-well plates. The ADP-Glo™ Assay (Promega; Madison, WI, USA) was used for bioluminescent detection of the kinase activity. Stock solutions of the tested compounds in DMSO (1mM) were diluted with the Kinase Assay Buffer before use (40 mM Tris, pH 7.5, enriched with 50 µM dithiothreitol; DTT), giving the final desired concentrations. The kinase enzymes, substrates, and ATP solutions were also diluted with the assay buffer prior to use. The GSK-3β, IKK-β, and ROCK-1 substrates were derived from human muscle glycogen synthase 1, human IkBA, and human 40S ribosomal protein S6, respectively. […] The DMSO solution (1% in well) was used in the blank samples instead of the tested inhibitors. After the incubation period, ATP (25 µM per well in the case of GSK-3β and IKK-β kinases; 5 µM per well in the case of ROCK-1 kinase) and an appropriate enzyme substrate (0.2 µg/µL in well) were added to start the enzymatic reaction. The reaction mixture was kept at room temperature for 1 h; then, the ADP-Glo™ reagent was added, to terminate the kinase reaction and deplete any remaining ATP. After 40 min, a second reagent (Kinase Detection Reagent) was applied to convert the obtained ADP to ATP and to generate light from the newly synthesized ATP using a luciferase/luciferin reaction. The mixture was incubated for another 30 min at room temperature before the luminescence was measured. The calculations of the percent of kinases’ inhibition by tested compounds were based on the equation 100 − (S/B) × 100; S and B are the enzyme activities with and without the tested sample, respectively. […]. IC50 results were obtained using nonlinear regression (GraphPad Prism 9; GraphPad Software, San Diego, CA, USA) by plotting the residual enzyme activities against the applied inhibitor concentration. Each compound was evaluated in two independent experiments, with every data point collected in duplicate.

[2] = target: T2, IKK-β (Homo sapiens, UniProt O14920); assay: ADP-Glo kinase assay, IKK-β inhibition; assay type: biochemical; settings: for IC50: mean ± SEM, ATP 25 µM; for inhibition at 10 µM: mean ± SD, read-out: % inh. at 10 µM IKK-β
T2 construct: purchased Promega
T2 sequence (O14920 1-756): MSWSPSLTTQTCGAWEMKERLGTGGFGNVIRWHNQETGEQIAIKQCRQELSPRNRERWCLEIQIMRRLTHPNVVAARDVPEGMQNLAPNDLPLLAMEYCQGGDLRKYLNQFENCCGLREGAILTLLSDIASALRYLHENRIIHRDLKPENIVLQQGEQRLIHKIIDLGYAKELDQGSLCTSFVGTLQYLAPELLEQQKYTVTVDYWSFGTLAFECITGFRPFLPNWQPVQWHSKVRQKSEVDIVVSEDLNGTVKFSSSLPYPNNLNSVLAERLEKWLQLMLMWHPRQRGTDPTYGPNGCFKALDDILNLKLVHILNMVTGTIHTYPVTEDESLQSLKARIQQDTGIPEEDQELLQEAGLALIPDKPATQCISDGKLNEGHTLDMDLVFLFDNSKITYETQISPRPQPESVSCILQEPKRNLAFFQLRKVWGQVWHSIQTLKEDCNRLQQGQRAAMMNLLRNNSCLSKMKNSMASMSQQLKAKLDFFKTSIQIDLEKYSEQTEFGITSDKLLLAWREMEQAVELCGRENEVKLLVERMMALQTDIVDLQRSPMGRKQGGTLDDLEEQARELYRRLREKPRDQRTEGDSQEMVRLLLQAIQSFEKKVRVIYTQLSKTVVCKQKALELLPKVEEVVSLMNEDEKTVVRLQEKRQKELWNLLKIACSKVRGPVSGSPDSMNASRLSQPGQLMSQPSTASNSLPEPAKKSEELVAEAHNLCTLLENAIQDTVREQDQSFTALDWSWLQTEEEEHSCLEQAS
Description: as §1
Promega’s Kinase Enzyme Systems (Promega; Madison, WI, USA) were used to determine the activities of the tested compounds against the human recombinant kinases GSK-3β, IKK- β, and ROCK-1. The assays were performed according to the provided manufacturer’s instruction, based on the optimized conditions of the enzymatic reactions, using the low-volume, white polystyrene, 384-well plates. The ADP-Glo™ Assay (Promega; Madison, WI, USA) was used for bioluminescent detection of the kinase activity. Stock solutions of the tested compounds in DMSO (1mM) were diluted with the Kinase Assay Buffer before use (40 mM Tris, pH 7.5, enriched with 50 µM dithiothreitol; DTT), giving the final desired concentrations. The kinase enzymes, substrates, and ATP solutions were also diluted with the assay buffer prior to use. The GSK-3β, IKK-β, and ROCK-1 substrates were derived from human muscle glycogen synthase 1, human IkBA, and human 40S ribosomal protein S6, respectively. The assay procedure was as follows: At first, the appropriate kinase enzyme (GSK-3β: 10 ng per well; IKK-β: 45 ng per well; ROCK-1: 24 ng per well) was incubated with the tested sample (10 µM in well) for 5 min. The DMSO solution (1% in well) was used in the blank samples instead of the tested inhibitors. After the incubation period, ATP (25 µM per well in the case of GSK-3β and IKK-β kinases; 5 µM per well in the case of ROCK-1 kinase) and an appropriate enzyme substrate (0.2 µg/µL in well) were added to start the enzymatic reaction. The reaction mixture was kept at room temperature for 1 h; then, the ADP-Glo™ reagent was added, to terminate the kinase reaction and deplete any remaining ATP. After 40 min, a second reagent (Kinase Detection Reagent) was applied to convert the obtained ADP to ATP and to generate light from the newly synthesized ATP using a luciferase/luciferin reaction. The mixture was incubated for another 30 min at room temperature before the luminescence was measured. The calculations of the percent of kinases’ inhibition by tested compounds were based on the equation 100 − (S/B) × 100; S and B are the enzyme activities with and without the tested sample, respectively. […] Each compound was evaluated in two independent experiments, with every data point collected in duplicate.

T1 sequence (Q13464 whole entry): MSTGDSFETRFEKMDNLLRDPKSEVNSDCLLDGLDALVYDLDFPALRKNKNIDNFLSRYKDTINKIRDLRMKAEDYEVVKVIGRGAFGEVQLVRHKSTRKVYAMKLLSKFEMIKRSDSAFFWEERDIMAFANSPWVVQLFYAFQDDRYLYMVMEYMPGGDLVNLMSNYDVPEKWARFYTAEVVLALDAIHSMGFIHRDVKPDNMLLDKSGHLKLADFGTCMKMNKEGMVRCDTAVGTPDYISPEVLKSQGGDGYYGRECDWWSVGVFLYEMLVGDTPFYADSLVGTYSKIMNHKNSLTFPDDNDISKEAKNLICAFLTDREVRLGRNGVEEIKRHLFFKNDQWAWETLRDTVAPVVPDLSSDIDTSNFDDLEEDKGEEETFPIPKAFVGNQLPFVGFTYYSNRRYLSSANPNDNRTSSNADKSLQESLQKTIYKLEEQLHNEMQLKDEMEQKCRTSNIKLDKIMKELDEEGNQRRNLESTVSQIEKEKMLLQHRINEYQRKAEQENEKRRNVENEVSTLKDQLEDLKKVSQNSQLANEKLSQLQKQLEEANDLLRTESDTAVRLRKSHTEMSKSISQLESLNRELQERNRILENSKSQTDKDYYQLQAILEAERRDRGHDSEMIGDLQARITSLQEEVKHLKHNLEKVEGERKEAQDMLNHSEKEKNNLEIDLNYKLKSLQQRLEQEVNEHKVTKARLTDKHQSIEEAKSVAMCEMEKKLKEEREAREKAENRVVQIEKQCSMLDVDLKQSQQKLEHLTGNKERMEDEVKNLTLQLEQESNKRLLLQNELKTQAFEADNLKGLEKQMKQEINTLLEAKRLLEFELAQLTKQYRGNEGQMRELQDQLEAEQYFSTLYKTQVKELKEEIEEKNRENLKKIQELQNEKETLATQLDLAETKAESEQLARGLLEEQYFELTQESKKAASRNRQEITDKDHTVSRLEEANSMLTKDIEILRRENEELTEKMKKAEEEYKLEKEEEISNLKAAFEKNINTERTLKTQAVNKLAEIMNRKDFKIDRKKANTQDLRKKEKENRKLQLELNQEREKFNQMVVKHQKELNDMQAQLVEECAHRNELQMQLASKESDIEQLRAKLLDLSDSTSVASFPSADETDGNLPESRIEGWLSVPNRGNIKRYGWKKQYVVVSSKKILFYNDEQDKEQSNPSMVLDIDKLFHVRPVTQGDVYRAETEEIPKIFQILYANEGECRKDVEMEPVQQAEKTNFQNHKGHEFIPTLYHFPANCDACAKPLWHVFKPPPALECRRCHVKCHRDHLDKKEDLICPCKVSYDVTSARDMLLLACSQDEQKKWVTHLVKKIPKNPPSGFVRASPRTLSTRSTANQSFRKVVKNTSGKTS

Row | SMILES | IC50 ([1]; mean ± SEM, ATP 5 µM) [nM] | IC50 [2] [nM] | inhibition at 10 µM ([1]; mean ± SD) [%] | inhibition at 10 µM [2] [%] | further results
1 | CC1(C)NC(=O)c2sc(-c3ccnc(NC(=O)C4CCC4)c3)cc2N1 [Compound 41, N-(4-(2,2-Dimethyl-4-oxo-1,2,3,4-tetrahydrothieno [3,2-d]pyrimidin-6-yl)pyridin-2-yl)-cyclobutanecarboxamide] | – | – | 48 | 32 | –
2 | O=C1NC2(CCOC2)Nc2cc(-c3ccnc(NC(=O)C4CC4)c3)sc21 (stereo not drawn) [Compound 62, N-(4-(4′-Oxo-3′,4,4′,5-tetrahydro-1′H,2H-spiro[furan-3,2′-thieno [3,2-d]pyrimidin]-6′-yl)pyridin-2-yl)cyclopropanecarboxamide] | 2310 ± 131 | – | – | 39 | IC50 [1]: 2300 nM
3 | NC(=O)Nc1cc(-c2cccc(NC(=O)C3CC3)c2)sc1C(N)=O [Compound 58, 5-(3-(Cyclopropanecarboxamido)phenyl)-3-ureidothiophene-2-carboxamide] | – | 422 ± 12 | – | – | –
4 | NC(=O)Nc1cc(-c2ccnc(NC(=O)C3CC3)c2)sc1C(N)=O [Compound 49, 5-(2-(Cyclopropanecarboxamido)pyridin-4-yl)-3-ureidothiophene-2-carboxamide] | – | – | – | 16 | –
5 | O=C1NC2(CCCC2)Nc2cc(-c3ccnc(NC(=O)C4CC4)c3)sc21 [Compound 60, N-(4-(4’-Oxo-3’,4’-dihydro-1’H-spiro[cyclopentane-1,2’-thieno [3,2-d]pyrimidin]-6’-yl)pyridin-2-yl)cyclopropanecarboxamide] | 1360 ± 79 | 7350 | – | – | –
6 | NC(=O)Nc1cc(-c2ccnc(NC(=O)C3CCC3)c2)sc1C(N)=O [Compound 50, 5-(2-(Cyclobutanecarboxamido)pyridin-4-yl)-3-ureidothiophene-2-carboxamide] | – | – | – | < 10 | inhibition at 1 µM ([1]; 1 μM (footnote), mean ± SD, read-out: % inh. ROCK-1, tested at inhibitor screening concentration of 1 μM): < 10%

Further lines, with some results ahead:

Row | IC50 ([1]; mean ± SEM, ATP 5 µM) [nM] | IC50 [2] [nM] | inhibition at 10 µM ([1]; mean ± SD) [%] | inhibition at 10 µM [2] [%] | SMILES | further results
7 | 1760 ± 109 | 4380 ± 544 | – | – | CC1(C)NC(=O)c2sc(-c3ccnc(NC(=O)C4CC4)c3)cc2N1 [Compound 40, N-(4-(2,2-Dimethyl-4-oxo-1,2,3,4-tetrahydrothieno [3,2-d]pyrimidin-6-yl)pyridin-2-yl)-cyclopropanecarboxamide] | –
8 | – | – | 32 | 33 | CC(C)C(=O)Nc1cc(-c2cc3c(s2)C(=O)NC(C)(C)N3)ccn1 [Compound 39, N-(4-(2,2-Dimethyl-4-oxo-1,2,3,4-tetrahydrothieno [3,2-d]pyrimidin-6-yl)pyridin-2-yl)isobutyramide] | –
9 | – | – | < 10 | < 10 | CC(C)C(=O)Nc1cc(-c2cc(NC(N)=O)c(C(N)=O)s2)ccn1 [Compound 48, 5-(2-Isobutyramidopyridin-4-yl)-3-ureidothiophene-2-carboxamide] | –
10 | – | – | – | 22 | COc1nc(-c2ccnc(NC(=O)C3CC3)c2)sc1C(N)=O [II, reference compound] | –
